The text below walks through data of US20180030483A1, “PROCESS FOR PRODUCTION OF BIO-ALCOHOL” (DANISCO US INC., priority 2015, published 2018).

The test system of assay [1] is Saccharomyces cerevisiae. The assay is described as follows: Batch yeast fermentation in YEGM medium with added organic acid salt. Type of assay: cell-based. The conditions noted are these: increasing concentration 0 to 1000 ppm; for increase in ethanol production: 32° C., until glucose less than 0.1% w/v; for yeast growth: biomass by OD660. Here is the method:
Yeast Extract Glucose media (YEGM): YEGM was prepared by dissolving 0.75 g Yeast Extract and 10 g dextrose dissolved in 100 ml tap water with pH in range […]. The media was then sterilized at 121° C. for 20 min.
The yeast biomass was measured using UV-Vis spectrophotometers (Shimadzu UV-1800) by diluting with YEGM to an OD660 in range of 0.2 to 0.8 with Milli-Q water.
Thereafter, the samples were analysed for alcohol and glycerol profile by HPLC and yeast biomass by UV Spectrophotometer.

Assay [2] relates to Saccharomyces cerevisiae. The conditions noted are these: molasses media, 0 to 1000 ppm, 3 g active dry yeast, 32° C.
Method: Molasses Medium: The media was prepared by diluting 333 g molasses with water to final weight of 1000 g (w/w). To this 400 mg of urea was added as nitrogen source.
Saccharomyces cerevisiae was used in the form of active dry yeast at a concentration of 3% w/v or was pre-cultured by adding 6 g of active dry yeast into 100 ml YEGM in 250 ml Erlenmeyer's flask. The cultures were incubated at 32° C.±2° C. with mixing at 100 to 200 rpm to a final OD660 of 100±10. This culture was subsequently used as an inoculum for further fermentation studies at a concentration of 6% v/v.
The composition of the reaction products was measured by high pressure liquid chromatographic method (Agilent Isocratic system 1200, USA with RI detector) by injecting 20 μL of appropriately diluted samples onto a Aminex Column HPX-87H (catalogue number 1250140, Bio-Rad) maintained at 60° C. using 0.01N sulphuric acid as a mobile phase at a flow rate of 0.7 mL/min. The detection was carried out using Refractive index detector (RID).
Fermentation was carried out at 32° C.±2° C. in incubator shaker at 100-200 rpm. The fermentation was carried out until glucose value observed was less than 0.1% w/v. Thereafter, the samples were analysed for alcohol, organic acids, and glycerol profile by HPLC.
Batch fermentation was initiated by addition of sodium benzoate at a concentration ranging from 0 to 1000 ppm followed by 3 g of active dry yeast into 100 ml molasses media in 250 mL Erlenmeyer flasks. Fermentation was carried out in incubator shaker at 32° C.±2° C. at 100 to 200 rpm. Thereafter, the samples were analysed for alcohol, organic acids, and glycerol profile by HPLC.
Fermentation was carried out at 32° C.±2° C. in incubator shaker at 100 to 200 rpm. The fermentation was carried out until glucose value observed was less than 0.1% w/v. Thereafter, the samples were analysed for alcohol, organic acids, and glycerol profile by HPLC.

Read-outs that look alike come from different tables or passages of the source.

For the compound `C/C=C/C=C/C(=O)[O-].[K+]` [potassium sorbate], in the assay on Saccharomyces cerevisiae [1], the glycerol yield result was “reduced”, the “increase in ethanol production” value is on record as at least 6% and the yeast growth result is “reduced”. Besides, in the assay with Saccharomyces cerevisiae [2], the acetic acid yield entry is on record as “reduced”, the ethanol production entry is “increased” and the glycerol yield entry is recorded as “reduced”.
In the case of `O=C([O-])c1ccccc1.[Na+]` [sodium benzoate], in the assay on Saccharomyces cerevisiae [1], the glycerol yield result was “reduced”, the “increase in ethanol production” value is given as at least 6% and the yeast growth entry is “reduced”. For the same compound, in the assay on Saccharomyces cerevisiae [2], the ethanol production result is “increased” and the glycerol yield entry is listed as “reduced”.
